“Also recorded” adds a separate entry of the source.
Columns and labels:
3T3-L1 cells = test: Adipocyte differentiation, Oil Red O staining; format: cell-based, mouse; conditions: preadipocytes 7 days in differentiating media (DM) + compound
Method: Two-day post-confluent 3T3-L1 preadipocyte cells were allowed to differentiate for 7 days in the presence of nothing, DM only, DM+ a test compound (COH-SR1, COH-SR2, COH-SR3, COH-SR4, COH-SR7, LR23 or LR59), or DM+ a positive control (TSA, C75, or Apicidin).
3T3-L1 preadipocytes cells were treated with differentiating media (DM) with COH-SR4 (1 μM, 3 μM, or 5 μM) or without for 7 days. […] As used in FIG. 9C, U=undifferentiated, D=differentiated with cocktail media.

AMPK = AMPK activation in HL-60 cells, Western blot; format: cell-based, human; conditions: 1 hour
Method: Activation of AMPK was associated with the phosphorylation of the α-subunit on Thr-172 of as assessed using phospho-specific antibodies (FIGS. 10A-B). AMPK activation also leads to the increased phosphorylation of the target protein acetyl-CoA carboxylase (ACC) (FIG. 10B).
Cells of each cell lines (Hela, HL-60, and 3T3-L1) were treated for 1 hour with a test compound (COH-SR4, COH-SR9, COH-SR16, or COH-SR18) at a concentration of 1 μM, 3 μM, or 5 μM, or AICAR (5-aminoimidazole-4-carboxamideriboside, an AMPK agonist used as positive control) at a concentration of 500 μM, or none of the above (the untreated cells as negative control). Total cell lysates from the untreated cells and the cells treated with a test compound or AICAR were analyzed by Western blot assay using specific antibodies against phospho-AMPK, phospho-ACC, total AMPK and total ACC.

[1] = test system: normal human aortic vascular smooth muscle cells (HAVSMC); test: MTT assay, HAVSMC; format: cell-based
Method: Cell density measurements were performed using a hemocytometer to count reproductive cells resistant to staining with trypan blue. Approximately 20,000 cells were plated into each well of 96-well flat-bottomed micro-titer plates. After 12 h or 24 h incubation at 37° C., medium containing either COH-SR4 (ranging 0-200 μM) or elesclomol (ranging 0-20 μM) were added to the cells. After 24 h, 48 h or 96 h incubation, 20 μL of 5 mg/mL MTT were introduced to each well and incubated for 2 h. The plates were centrifuged and medium was decanted. Cells were subsequently dissolved in 100 μl DMSO with gentle shaking for 2 h at room temperature, followed by measurement of OD570 (91).

[2] = test system: isolated mouse liver mitochondria; test: Mitochondrial swelling assay; conditions: potassium acetate buffer with valinomycin
Method: Mitochondrial swelling was measured in non-respiring mouse liver mitochondria incubated in buffered isotonic potassium acetate in the presence of valinomycin (24,25). […] Absorbance of the mitochondrial suspension before and after addition test compounds was measured every 10 seconds using a Varian Cary 300 spectrophotometer (Agilent Technologies, Santa Clara, Calif.). Swelling was recorded from the decrease in absorbance at 600 nm and expressed as percentage from initial reading after addition of mitochondria.
Mitochondrial membrane swelling was detected as decrease in absorbance at 600 nm following the addition of COH-SR4 or FCCP alone or in the presence of cysclosporin A (CSA, 1 μM) on isolated mouse liver mitochondria respiring on succinate (10 mM) in the presence of rotenone (1 μM) and valinomycin (5 μM) in potassium acetate buffer. […] Arrow indicates time of addition of test compounds into the mitochondria suspension.

[3] = test system: A2058, A101D and SK-Mel-28 melanoma cells; test: Mitochondrial ROS, MitoSox Red; format: cell-based, human; conditions: 5 μM, 1 h
Method: Briefly, cells (4×10^5 well) were seeded in a 6-well plate and incubated overnight. Twenty-four hours after plating, cells were treated with test compounds as indicated in each experiment. After washing with pre-warmed PBS, cells were incubated with fresh medium containing 5 μM MitoSox Red for 15 min at 37° C. The fluorescence intensity was measured at of 530ex/590em using flow cytometry (Cyan ADP). The cells only sample (no MitoSox dye added) was used as the background. Approximately 30,000 counts were made for each sample. Experiments were repeated for three times and at least duplicate samples were included in each experiment.
Mitochondrial ROS was measured by MitoSox Red according to the manufacturer's instructions (Molecular Probes, CA). The intensity of fluorescence was quantified by digital analysis of images obtained from confocal microscopy using Image Pro Premiere software (Media Cybernetics Inc., Bethesda, Md.) (A2058, FIG. 74A) or by flow cytometry (FIG. 74B). Cells were treated with either 5 μM of COH-SR4, rotenone (mitochondrial complex 1 inhibitor) or elesclomol for 1 h. *Results represent fold increase of ROS generation over control and are expressed as mean±SD from three independent experiments.

lung cancer cell lines = test: TUNEL apoptosis assay, lung cancer cell lines; format: cell-based, human; conditions: 1.5 μM, 24 h
Method: […] Apoptosis was determined by the labeling of DNA fragments with terminal deoxynucleotidyl-transferase dUTP nick-end labeling (TUNEL) assay using Promega fluorescence apoptosis detection system, and examined using Zeiss LSM 510 META laser scanning fluorescence microscope with filters 520 and 620 nm according to the protocol described previously (91). Photographs taken at identical exposure at ×400 magnification are presented.
The effect of COH-SR4 was first examined in a NCI panel of cancer cell lines, the results of which indicated good activity of COH-SR4 towards lung cancer (FIG. 78A). […] Values are presented as mean±SD from two separate determinations with eight replicates each (n=16) (FIG. 78B). The COH-SR4 treatment exerted a significant inhibitory effect on the survival of lung cancer cells [IC50: H1417 cells-1.2±0.2 μM, H1618 cells-1.5±0.2 μM, H358 cells-2.1±0.2 μM and H520 cells-2.4±0.3 μM]. […] Following initial screening for the anticancer activity of COH-SR4, the effect of COH-SR4 on clonogenic potential was studied. Standard colony-forming assay was performed and the colonies were counted using Innotech Alpha Imager HP. […] The effect of COH-SR4 on induction of apoptosis was further investigated. […] TUNEL assay was performed using Promega fluorescence detection kit and examined using Zeiss LSM 510 META laser-scanning fluorescence microscope with filters 520 and 620 nm. […]

Question: Which results are given for `O=C(Nc1cc(Cl)cc(Cl)c1)Nc1cc(Cl)cc(Cl)c1` [COH-SR4, 1,3-bis(3,5-dichlorophenyl) urea]?
Answer: differentiation and accumulation of lipid droplets (Oil Red O staining) (3T3-L1 cells): dose-dependently inhibited differentiation and accumulation of lipid droplets; also recorded: prevented accumulation of fat droplets; AMPK activation (AMPK): activated AMPK; cytotoxicity in normal cells ([1]; 96 h): did not cause any significant cytotoxicity; cytotoxicity in normal cells ([1]; concentrations effective in lung cancer cell lines, 48 h): did not exert any significant cytotoxicity; mitochondrial swelling (absorbance at 600 nm) [2]: mitochondrial swelling was observed; mitochondrial ROS production (MitoSox Red) [3]: induced ROS production; apoptosis (TUNEL) (lung cancer cell lines): induced apoptosis in all the lung cancer cell lines

— patent publication US9808434B2, “Compound for treating cancer and diabetes” (CITY OF HOPE, priority 2011, dated 2017)
